From US20230116039A1, “DISINFECTION SOLUTION WITH TWO-PART FORMULATION” (ASP GLOBAL MANUFACTURING GMBH, priority 2020, published 2023)

Experiments:
[1] = Stability of ready-to-use PAA solution, pH adjusted with ethanolamine, with or without chelant, heated at 56° C. for one hour; type: physicochemical; conditions: initial PAA 0.35%, water hardness 200 ppm, pH 5 with ethanolamine
Text: (§1) In these studies, peracetic acid (PAA) was combined with hard water having a water hardness of 200 parts per million (“ppm”) such that the resulting solution included a 0.35% concentration of PAA. The pH of the solution was adjusted to 5 using a pH modifier. In a first batch of the solution, the pH modifier used was ethanolamine. In a second batch of the solution, the pH modifier used was disodium phosphate. Test specimens from these two batches were created by individually adding chelants thereto. The chelants used in these studies are those used for removing ions (e.g. Calcium and Magnesium) from hard water, and included tetrasodium EDTA, TRILON® M (methylglycinediacetic acid trisodium salt (MGDA-Na3)), TRILON® C (diethylenetriaminepentaacetic acid pentasodium salt (DTPA-Na5)), sodium citrate, and DISSOLVINE® GL (glutamic acid diacetic acid tetrasodium salt (GLDA-Na4)). Test specimens from these two batches were also created that lacked any such chelants. In some instances, test specimens were created for different concentrations of certain of these chelants. Table 1 reflects test specimens made from the first batch of the solution. Table 2 reflects test specimens made from the second batch of the solution. The tables also reflect the concentration of each chelant in each specimen as a percentage. Each specimen was heated at 56° C. for one hour. At the end of the hour, the PAA concentration was determined. The final concentration of PAA is provided in Table 1 and Table 2 alongside the change in the PAA concentration as determined at the end of the hour (“Δ PAA %”).

[2] = Stability of ready-to-use PAA solution, pH adjusted with disodium phosphate, with or without chelant, heated at 56° C. for one hour; type: physicochemical; conditions: initial PAA 0.35%, water hardness 200 ppm, pH 5 with disodium phosphate
Text: as §1

| Structure (SMILES) | Final PAA Concentration (%) ([1]; chelant concentration 0.2%) | Δ PAA % ([1]; chelant concentration 0.2%) [%] | Final PAA Concentration (%) ([1]; chelant concentration 0.6%) | Δ PAA % ([1]; chelant concentration 0.6%) [%] | Final PAA Concentration (%) ([2]; chelant concentration 0.2%) | Δ PAA % ([2]; chelant concentration 0.2%) [%] | Final PAA Concentration (%) ([2]; chelant concentration 0.6%) | Δ PAA % ([2]; chelant concentration 0.6%) [%] | Final PAA Concentration (%) ([1]; chelant concentration 0.1%) | Δ PAA % ([1]; chelant concentration 0.1%) [%] | Final PAA Concentration (%) ([1]; chelant concentration 0.4%) | Δ PAA % ([1]; chelant concentration 0.4%) [%] | Final PAA Concentration (%) ([2]; chelant concentration 0.1%) | Δ PAA % ([2]; chelant concentration 0.1%) [%] | Final PAA Concentration (%) ([2]; chelant concentration 0.4%) | Δ PAA % ([2]; chelant concentration 0.4%) [%] |
| --- | --- | --- | --- | --- | --- | --- | --- | --- | --- | --- | --- | --- | --- | --- | --- | --- |
| O=C([O-])CC[C@@H](C(=O)[O-])N(CC(=O)[O-])CC(=O)[O-].[Na+].[Na+].[Na+].[Na+] [Dissolvine (liquid), glutamic acid diacetic acid tetrasodium salt] | 0.23 | −34 | 0.17 | −51 | 0.29 | −17 | 0.25 | −29 |  |  |  |  |  |  |  |  |
| O=C([O-])CN(CCN(CC(=O)[O-])CC(=O)[O-])CCN(CC(=O)[O-])CC(=O)[O-].[Na+].[Na+].[Na+].[Na+].[Na+] [Trilon C (liquid), diethylenetriaminepentaacetic acid pentasodium salt] | 0.22 | −37 |  |  | 0.26 | −26 |  |  |  |  |  |  |  |  |  |  |
| O=C([O-])CN(CCN(CC(=O)[O-])CC(=O)[O-])CC(=O)[O-].[Na+].[Na+].[Na+].[Na+] [Na4EDTA, tetrasodium EDTA, reference compound] |  |  |  |  |  |  |  |  | 0.21 | −40 | 0.14 | −60 | 0.28 | −20 | 0.18 | −49 |
| CC(C(=O)[O-])N(CC(=O)[O-])CC(=O)[O-].[Na+].[Na+].[Na+] (stereo not drawn) [Trilon M (liquid), methylglycinediacetic acid trisodium salt] |  |  | 0.19 | −46 | 0.3 | −14 | 0.26 | −26 |  |  |  |  |  |  |  |  |
| O=C([O-])CC(O)(CC(=O)[O-])C(=O)[O-].[Na+].[Na+].[Na+] [sodium citrate, reference compound] |  |  |  |  |  |  |  |  |  |  | 0.23 | −34 |  |  | 0.26 | −26 |
